For one assay, the target named is T1, HDAC-1 (Homo sapiens, UniProt Q13547).
T1 construct: made in house
Put plainly: Deacetylase fluorescence assay (HDAC-1). In kind it is biochemical. A digest of the protocol: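 Flag-tagged HDAC-1 immunopurified from overexpressing 293-derived cells was assayed in 25 mM Tris-HCl pH 8.0, 137 mM NaCl, 2.7 mM KCl, 1 mM MgCl2 with Fluor de Lys substrate (50 uM) and inhibitor. Deacetylation was read by fluorescence after trypsin developer containing TSA.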

The subject of assay [1] is p21 promoter (p21-luc) in H1299 cells. Put plainly: p21 promoter luciferase assay using stably transfected p21-luc in H1299 cells. The format is cell-based. Conditions: Homo sapiens, NCI-H1299. A digest of the protocol:
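H1299 cells stably carrying a p21 promoter–luciferase reporter, grown in RPMI 1640/10% FBS under Geneticin selection, seeded about 5000 cells/well and incubated overnight at 37 C. Compound exposure lasted one day. Cells were then lysed and luciferase luminescence measured.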

The term IC50 denotes the concentration that gives 50% inhibition. The AC50 is the midpoint of the concentration-response curve, whichever way the signal moves. A high value points to activity only at high concentration.

The structures appear in SMILES notation. Like-named read-outs stand apart in the source and are kept apart here.

T1 sequence (Q13547 whole entry): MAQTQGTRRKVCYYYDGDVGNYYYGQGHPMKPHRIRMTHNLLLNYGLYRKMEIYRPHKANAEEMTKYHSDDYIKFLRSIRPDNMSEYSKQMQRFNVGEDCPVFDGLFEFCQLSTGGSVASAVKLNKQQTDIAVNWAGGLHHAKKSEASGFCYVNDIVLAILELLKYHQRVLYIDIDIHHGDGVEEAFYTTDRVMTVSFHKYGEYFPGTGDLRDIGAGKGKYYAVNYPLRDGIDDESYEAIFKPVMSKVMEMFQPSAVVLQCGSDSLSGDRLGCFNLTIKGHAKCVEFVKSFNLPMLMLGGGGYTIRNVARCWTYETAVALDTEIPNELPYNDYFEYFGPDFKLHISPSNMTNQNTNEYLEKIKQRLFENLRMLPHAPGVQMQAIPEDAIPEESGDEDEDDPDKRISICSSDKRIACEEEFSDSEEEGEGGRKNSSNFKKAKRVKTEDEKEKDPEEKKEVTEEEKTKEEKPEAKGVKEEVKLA

In the case of `COc1ccc(CC(=O)N2CCc3ccc(/C=C/C(=O)NO)cc3C2)cc1` [Example 65, (E)-N-Hydroxy-3-{2-[2-(4-methoxy-phenyl)-acetyl]-1,2,3,4-tetrahydro-isoquinolin-7-yl}-acrylamide], the 50% inhibitory concentration (IC50) at HDAC-1 (read-out: HDAC-1 IC50) is less than 0.1 µM. Also, the half-maximal activity concentration (AC50) in assay [1] is more than 1 µM.
Regarding `O=C(/C=C/c1ccc2c(c1)CN(C(=O)Cc1ccc(Cl)cc1)CC2)NO` [Example 66, (E)-3-{2-[2-(4-Chloro-phenyl)-acetyl]-1,2,3,4-tetrahydro-isoquinolin-7-yl}-N-hydroxy-acrylamide], at HDAC-1 (read-out: HDAC-1 IC50), the half-inhibitory concentration (IC50) was less than 0.1 µM. The half-maximal activity concentration (AC50) in assay [1] was more than 1 µM.
For `O=C(/C=C/c1ccc2c(c1)CN(C(=O)Cc1ccc(Cl)c(Cl)c1)CC2)NO` [Example 67, (E)-3-{2-[2-(3,4-Dichloro-phenyl)-acetyl]-1,2,3,4-tetrahydro-isoquinolin-7-yl}-N-hydroxy-acrylamide], on HDAC-1 (read-out: HDAC-1 IC50), the IC50 was less than 0.1 µM. The half-maximal activity concentration (AC50) in assay [1] is more than 1 µM.
As to `O=C(/C=C/c1ccc2c(c1)CCN(CCc1c[nH]c3ccccc13)C2)NO` [Example 68, (E)-N-Hydroxy-3-{2-[2-(1H-indol-3-yl)-ethyl]-1,2,3,4-tetrahydro-isoquinolin-6-yl}-acrylamide], the half-maximal inhibitory concentration (IC50) at HDAC-1 (read-out: HDAC-1 IC50) is less than 0.1 µM. In assay [1], this molecule gave a half-maximal activity concentration (AC50) of more than 1 µM.
Taken in the same sequence, the figures for `O=C(/C=C/c1ccc2c(c1)CCN(CCc1cnn3ccccc13)C2)NO` [Example 69, (E)-N-Hydroxy-3-[2-(2-pyrazolo[1,5-a]pyridin-3-yl-ethyl)-1,2,3,4-tetrahydro-isoquinolin-6-yl]-acrylamide] were less than 0.1 µM and more than 1 µM.
At HDAC-1, `Cc1[nH]c2ccccc2c1CCN1CCc2cc(/C=C/C(=O)NO)ccc2C1` [Example 70, (E)-N-Hydroxy-3-{2-[2-(2-methyl-1H-indol-3-yl)-ethyl]-1,2,3,4-tetrahydro-isoquinolin-6-yl}-acrylamide] returned an IC50 of less than 0.1 µM. Further, the AC50 in assay [1] was in the range of 0.1 to 1 µM.
As for `Cc1nn2ccccc2c1CCN1CCc2ccc(/C=C/C(=O)NO)cc2CC1` [Example 71, (E)-N-Hydroxy-3-{3-[2-(2-methyl-pyrazolo[1,5-a]pyridin-3-yl)-ethyl]-2,3,4,5-tetrahydro-1H-benzo[d]azepin-7-yl}-acrylamide], the IC50 at HDAC-1 (read-out: HDAC-1 IC50) was 0.1 to 1 µM. In assay [1], this molecule returned an AC50 of more than 1 µM.
Consider `CCc1nn2ccccc2c1CCN1CCc2cc(/C=C/C(=O)NO)ccc2C1` [Example 72, (E)-3-{2-[2-(2-Ethyl-pyrazolo[1,5-a]pyridin-3-yl)-ethyl]-1,2,3,4-tetrahydro-isoquinolin-6-yl}-N-hydroxy-acrylamide], for which the IC50 on HDAC-1 (read-out: HDAC-1 IC50) is less than 0.1 µM. The molecule further gave a concentration at half-maximal activity (AC50) in assay [1] of 0.1 to 1 µM.
Taken in the same sequence, the figures for `CCc1nn2ccccc2c1CCN1CCc2cc(CCC(=O)NO)ccc2C1` [Example 73, 3-{2-[2-(2-Ethyl-pyrazolo[1,5-a]pyridin-3-yl)-ethyl]-1,2,3,4-tetrahydro-isoquinolin-6-yl}-N-hydroxy-propionamide] were 0.1 to 1 µM and more than 1 µM.
On to `CC(C)(C)c1[nH]c2ccccc2c1CCN1CCc2cc(/C=C/C(=O)NO)ccc2C1` [Example 74, (E)-3-{2-[2-(2-tert-Butyl-1H-indol-3-yl)-ethyl]-1,2,3,4-tetrahydro-isoquinolin-6-yl}-N-hydroxy-acrylamide], for which the IC50 on HDAC-1 (read-out: HDAC-1 IC50) is less than 0.1 µM. Moreover, the AC50 in assay [1] is 0.1 to 1 µM.
Turning to `O=C(/C=C/c1ccc2c(c1)CCN(CCc1ccccc1)C2)NO` [Example 75, (E)-N-Hydroxy-3-(2-phenethyl-1,2,3,4-tetrahydro-isoquinolin-6-yl)-acrylamide], the IC50 at HDAC-1 (read-out: HDAC-1 IC50) is less than 0.1 µM. Moreover, in assay [1], the AC50 was more than 1 µM.
The like results for `O=C(/C=C/c1ccc2c(c1)CCN(CCC1CCCCC1)C2)NO` [Example 76, (E)-3-[2-(2-Cyclohexyl-ethyl)-1,2,3,4-tetrahydro-isoquinolin-6-yl]-N-hydroxy-acrylamide] were, in that order, less than 0.1 µM and more than 1 µM.
Take `O=C(/C=C/c1ccc2c(c1)CCN(Cc1ccccc1)C2)NO` [Example 77, (E)-3-(2-Benzyl-1,2,3,4-tetrahydro-isoquinolin-6-yl)-N-hydroxy-acrylamide]: the IC50 on HDAC-1 (read-out: HDAC-1 IC50) lay in the range of 0.1 to 1 µM. This molecule also had a half-maximal activity concentration (AC50) in assay [1] of more than 1 µM.
Taken in the same sequence, the figures for `Cc1noc(-c2ccccc2)c1CCN1CCc2cc(/C=C/C(=O)NO)ccc2C1` [Example 78, (E)-N-Hydroxy-3-{2-[2-(3-methyl-5-phenyl-isoxazol-4-yl)-ethyl]-1,2,3,4-tetrahydro-isoquinolin-6-yl}-acrylamide] were less than 0.1 µM and more than 1 µM.
Taken in the same sequence, the figures for `Cc1[nH]c2ccccc2c1CC(=O)N1CCc2cc(/C=C/C(=O)NO)ccc2C1` [Example 79, (E)-N-Hydroxy-3-{2-[2-(2-methyl-1H-indol-3-yl)-acetyl]-1,2,3,4-tetrahydro-isoquinolin-6-yl}-acrylamide] were less than 0.1 µM and more than 1 µM.
Taken in the same sequence, the figures for `Cc1[nH]c2ccccc2c1CCN1CCc2ccc(/C=C/C(=O)NO)cc2CC1` [Example 80, (E)-N-Hydroxy-3-{3-[2-(2-methyl-1H-indol-3-yl)-ethyl]-2,3,4,5-tetrahydro-1H-benzo[d]azepin-7-yl}-acrylamide] were less than 0.1 µM and more than 1 µM.
On to `O=C(/C=C/c1ccc2c(c1)CCN(S(=O)(=O)c1ccccc1)C2)NO` [Example 81, (E)-3-(2-Benzenesulfonyl-1,2,3,4-tetrahydro-isoquinolin-6-yl)-N-hydroxy-acrylamide], for which, at HDAC-1 (read-out: HDAC-1 IC50), the IC50 fell in the range of 0.1 to 1 µM. In assay [1], this molecule yielded an AC50 of more than 1 µM.
The like results for `COc1ccc(S(=O)(=O)N2CCc3cc(/C=C/C(=O)NO)ccc3C2)cc1` [Example 82, (E)-N-Hydroxy-3-[2-(4-methoxy-benzenesulfonyl)-1,2,3,4-tetrahydro-isoquinolin-6-yl]-acrylamide] were, in that order, 0.1 to 1 µM and more than 1 µM.
In the case of `COc1cccc(S(=O)(=O)N2CCc3cc(/C=C/C(=O)NO)ccc3C2)c1` [Example 83, (E)-N-Hydroxy-3-[2-(3-methoxy-benzenesulfonyl)-1,2,3,4-tetrahydro-isoquinolin-6-yl]-acrylamide], on HDAC-1 (read-out: HDAC-1 IC50), the half-maximal inhibitory concentration (IC50) lay in the range of 0.1 to 1 µM. In addition, the AC50 in assay [1] was more than 1 µM.
For the molecule `COc1cccc(S(=O)(=O)N2CCc3cc(CCC(=O)NO)ccc3C2)c1` [Example 84, N-Hydroxy-3-[2-(3-methoxy-benzenesulfonyl)-1,2,3,4-tetrahydro-isoquinolin-6-yl]-propionamide], at HDAC-1 (read-out: HDAC-1 IC50), the IC50 fell in the range of 0.1 to 1 µM. For the same molecule, the half-maximal activity concentration (AC50) in assay [1] is more than 1 µM.
The like results for `Cc1c(CCN2CCc3cc(/C=C/C(=O)NO)ccc3C2)cnn1-c1ccccc1` [Example 85, (E)-N-Hydroxy-3-{2-[2-(5-methyl-1-phenyl-1H-pyrazol-4-yl)-ethyl]-1,2,3,4-tetrahydro-isoquinolin-6-yl}-acrylamide] were, in that order, less than 0.1 µM and more than 1 µM.
The like results for `CN(C)c1ccc(C(=O)N2CCc3cc(/C=C/C(=O)NO)ccc3C2)cc1` [Example 86, (E)-3-[2-(4-Dimethylamino-benzoyl)-1,2,3,4-tetrahydro-isoquinolin-6-yl]-N-hydroxy-acrylamide] were, in that order, 0.1 to 1 µM and more than 1 µM.
Taken in the same sequence, the figures for `CN(C)c1ccc(C(=O)N2CCc3cc(CCC(=O)NO)ccc3C2)cc1` [Example 87, 3-[2-(4-Dimethylamino-benzoyl)-1,2,3,4-tetrahydro-isoquinolin-6-yl]-N-hydroxy-propionamide] were 0.1 to 1 µM and more than 1 µM.
Consider `COc1cccc(C(=O)N2CCc3cc(/C=C/C(=O)NO)ccc3C2)c1` [Example 88, (E)-N-Hydroxy-3-[2-(3-methoxy-benzoyl)-1,2,3,4-tetrahydro-isoquinolin-6-yl]-acrylamide], for which the IC50 at HDAC-1 (read-out: HDAC-1 IC50) was 0.1 to 1 µM. The same molecule returned an AC50 in assay [1] of more than 1 µM.
Turning to `COc1ccc(C(=O)N2CCc3cc(/C=C/C(=O)NO)ccc3C2)cc1` [Example 89, (E)-N-Hydroxy-3-[2-(4-methoxy-benzoyl)-1,2,3,4-tetrahydro-isoquinolin-6-yl]-acrylamide], the half-maximal inhibitory concentration (IC50) at HDAC-1 (read-out: HDAC-1 IC50) is 0.1 to 1 µM. This molecule gave a half-maximal activity concentration (AC50) in assay [1] of more than 1 µM.
Taken in the same sequence, the figures for `CN(C)c1ccc(C(=O)N2CCc3ccc(CCC(=O)NO)cc3C2)cc1` [Example 90, 3-[2-(4-Dimethylamino-benzoyl)-1,2,3,4-tetrahydro-isoquinolin-7-yl]-N-hydroxy-propionamide] were 0.1 to 1 µM and more than 1 µM.
